Values of other authors as cited in US20160000716A1, “METHOD OF TREATING VITAMIN B12 DEFICIENCY” (Pharmaceutical Productions Inc., priority 2013, published 2016).

Conditions: over a wide dosing range, independent of the presence of intrinsic factor

Substance: Vitamin B-12
- Fraction of oral Vitamin B-12 absorbed: approximately 1.2%
